Literature values, collected in patent US6387352B1, “Mouthwash compositions” (Erling Johansen, priority 1996, dated 2002).

Conditions: compared to similar solutions excluding fluoride

Which “increase in hardness of dental enamel on addition of fluoride to calcium/phosphate solution” value does the source give for `F` [fluoride] here?
Its value is “(about) four times increase in hardness”.
